According to patent publication US20240216369A1, “THE USE OF A SPLICING MODULATOR FOR A TREATMENT SLOWING PROGRESSION OF HUNTINGTON'S DISEASE” (Novartis AG, priority 2019, published 2024):

Legend:
[1] = system: mHTT; assay: Mutant and total HTT multiplex HTRF assay in Q48 HTT human embryonic stem cell line: mHTT; type: cell-based; settings: Q48 HTT hESC, 48 hours
Summary of the method: (§1)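 Q48 HTT hESCs from HD donors were treated with compound for 48 h at 37 °C after 24 h adherence, then lysed. Lysates were read by multiplex HTRF with N-terminal donor, polyQ (MW1) and post-polyQ (MAB2166) antibodies for 4-6 h at RT. Donor/acceptor ratios give relative mHTT and tHTT; pIC50 reported.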

[2] = system: tHTT; assay: Mutant and total HTT multiplex HTRF assay in Q48 HTT human embryonic stem cell line: tHTT; type: cell-based; settings: Q48 HTT hESC, 48 hours
Summary of the method: as §1

SMILES	Rating (based on mHTT potency) [1]	mHTT pIC50 [1]	tHTT pIC50 [2]
COc1cc(-c2sc(C)nc2C)ccc1-c1nnc(N(C)C2CC(C)(C)NC(C)(C)C2)s1 [Compound 62, 5-(4-(2,4-dimethylthiazol-5-yl)-2-methoxyphenyl)-N-methyl-N-(2,2,6,6-tetramethylpiperidin-4-yl)-1,3,4-thiadiazol-2-amine]	*** (a pIC50 value between 6.5 and 7.0 is indicated by three stars (***))	6.6555	6.6405
CCOc1cc(C)nc2cc(O)c(-c3ccc(N(C)C4CC(C)(C)NC(C)(C)C4)nn3)cc12 [Compound 63, 4-ethoxy-2-methyl-6-(6-(methyl(2,2,6,6-tetramethylpiperidin-4-yl)amino)pyridazin-3-yl)quinolin-7-ol]	*** (a pIC50 value between 6.5 and 7.0 is indicated by three stars (***))	6.63	6.534
CN(c1ccc(-c2cc3ccc(C#N)nc3cc2O)nn1)C1CC(C)(C)NC(C)(C)C1 [Compound 64, 7-hydroxy-6-(6-(methyl(2,2,6,6-tetramethylpiperidin-4-yl)amino)pyridazin-3-yl)quinoline-2-carbonitrile]	*** (a pIC50 value between 6.5 and 7.0 is indicated by three stars (***))	6.5945	6.5885
COc1cc(-c2cn[nH]c2)c(F)c(F)c1-c1nnc(N(C)C2CC(C)(C)NC(C)(C)C2)s1 [Compound 65, 5-(2,3-difluoro-6-methoxy-4-(1H-pyrazol-4-yl)phenyl)-N-methyl-N-(2,2,6,6-tetramethylpiperidin-4-yl)-1,3,4-thiadiazol-2-amine]	*** (a pIC50 value between 6.5 and 7.0 is indicated by three stars (***))	6.5865	6.5835
CN(c1ccc(-c2cc3c(cc2O)C(=O)CC3)nn1)C1CC(C)(C)NC(C)(C)C1 [Compound 66, 6-hydroxy-5-(6-(methyl(2,2,6,6-tetramethylpiperidin-4-yl)amino)pyridazin-3-yl)-2,3-dihydro-1H-inden-1-one]	*** (a pIC50 value between 6.5 and 7.0 is indicated by three stars (***))	6.5815	6.637
COc1ccc(-c2ccc(-c3ccc(N(C)C4CC(C)(C)NC(C)(C)C4)nn3)c(O)c2)cn1 [Compound 67, 5-(6-methoxypyridin-3-yl)-2-(6-(methyl(2,2,6,6-tetramethylpiperidin-4-yl)amino)pyridazin-3-yl)phenol]	*** (a pIC50 value between 6.5 and 7.0 is indicated by three stars (***))	6.547	6.452
CN(c1ccc(-c2cc3ccc(OCCC(C)(C)O)cc3cc2O)nn1)C1CC(C)(C)NC(C)(C)C1 [Compound 68, 7-(3-hydroxy-3-methylbutoxy)-3-(6-(methyl(2,2,6,6-tetramethylpiperidin-4-yl)amino)pyridazin-3-yl)naphthalen-2-ol]	*** (a pIC50 value between 6.5 and 7.0 is indicated by three stars (***))	6.529	6.488
CC1CC(Oc2ccc(-c3ccc(-c4cn[nH]c4)cc3O)nn2)CC(C)N1 (stereo not shown) [Compound 69, 2-(6-((2,6-dimethylpiperidin-4-yl)oxy)pyridazin-3-yl)-5-(1H-pyrazol-4-yl)phenol]	**** (a pIC50 value between 7.0 and 7.5 is indicated by four stars (****))	7.1525	7.089
C[C@@H]1CC(Oc2ccc(-c3ccc(-n4cccn4)cc3O)nn2)C[C@@H](C)N1 (stereo partly drawn) [Compound 70, 2-(6-(((2R,6R)-2,6-dimethylpiperidin-4-yl)oxy)pyridazin-3-yl)-5-(1H-pyrazol-1-yl)phenol]	* (a pIC50 value between 5 and 6 is indicated by a single star (*))	5.999	5.806
Oc1ccc2cc(-c3ccc(C4CCNCC4)nn3)c(O)cc2c1 [Compound 71, 3-(6-(piperidin-4-yl)pyridazin-3-yl)naphthalene-2,7-diol]	* (a pIC50 value between 5 and 6 is indicated by a single star (*))	5.996	5.997
CC1(C)CC(Oc2ccc(-c3ccc(-n4cccn4)cc3O)nn2)CCN1 (stereo not shown) [Compound 72, 2-(6-((2,2-dimethylpiperidin-4-yl)oxy)pyridazin-3-yl)-5-(1H-pyrazol-1-yl)phenol]	** (a pIC50 value between 6 and 6.5 is indicated by two stars (**))	6.21	6.13
Oc1cc(-c2cn[nH]c2)ccc1-c1ccc(N2C[C@H]3CNC[C@H]3C2)nn1 [Compound 74, 2-(6-((3aR,6aS)-hexahydropyrrolo[3,4-c]pyrrol-2(1H)-yl)pyridazin-3-yl)-5-(1H-pyrazol-4-yl)phenol]	** (a pIC50 value between 6 and 6.5 is indicated by two stars (**))	6.03	6.02
COc1cc(-c2cnn(C)c2)ccc1-c1nnc(N2CC3(CCNCC3)C2)s1 [Compound 75, 2-(2-methoxy-4-(1-methyl-1H-pyrazol-4-yl)phenyl)-5-(2,7-diazaspiro[3.5]nonan-2-yl)-1,3,4-thiadiazole]	** (a pIC50 value between 6 and 6.5 is indicated by two stars (**))	6.4375	6.4335
CN(c1nnc(-c2ccc(-c3cn[nH]c3)cc2F)s1)C1CC(C)(C)NC(C)(C)C1 [Compound 76, 5-(2-fluoro-4-(1H-pyrazol-4-yl)phenyl)-N-methyl-N-(2,2,6,6-tetramethylpiperidin-4-yl)-1,3,4-thiadiazol-2-amine]	** (a pIC50 value between 6 and 6.5 is indicated by two stars (**))	6.0645	6.075
CN(c1nnc(-c2cc3cc(C#N)ccc3s2)s1)C1CC(C)(C)NC(C)(C)C1 [Compound 77, 2-(5-(methyl(2,2,6,6-tetramethylpiperidin-4-yl)amino)-1,3,4-thiadiazol-2-yl)benzo[b]thiophene-5-carbonitrile]	** (a pIC50 value between 6 and 6.5 is indicated by two stars (**))	6.137	6.1615
CN(c1nnc(-c2cc3c(cc2O)C(=O)CC3)s1)C1CC(C)(C)NC(C)(C)C1 [Compound 78, 6-hydroxy-5-(5-(methyl(2,2,6,6-tetramethylpiperidin-4-yl)amino)-1,3,4-thiadiazol-2-yl)-2,3-dihydro-1H-inden-1-one]	** (a pIC50 value between 6 and 6.5 is indicated by two stars (**))	6.264	6.152
Cc1cc(-c2ccc(-c3nnc(N(C)C4CC(C)(C)NC(C)(C)C4)s3)c(F)c2)[nH]n1 [Compound 79, 5-(2-fluoro-4-(3-methyl-1H-pyrazol-5-yl)phenyl)-N-methyl-N-(2,2,6,6-tetramethylpiperidin-4-yl)-1,3,4-thiadiazol-2-amine]	* (a pIC50 value between 5 and 6 is indicated by a single star (*))	5.9315	6.01
COc1cc(-c2cn[nH]c2)cc(F)c1-c1nnc(N(C)C2CC(C)(C)NC(C)(C)C2)s1 [Compound 80, 5-(2-fluoro-6-methoxy-4-(1H-pyrazol-4-yl)phenyl)-N-methyl-N-(2,2,6,6-tetramethylpiperidin-4-yl)-1,3,4-thiadiazol-2-amine]	** (a pIC50 value between 6 and 6.5 is indicated by two stars (**))	6.2465	6.071
CN(c1ccc(-c2ccc3nccn3c2)nn1)C1CC(C)(C)NC(C)(C)C1 [Compound 81, 6-(imidazo[1,2-a]pyridin-6-yl)-N-methyl-N-(2,2,6,6-tetramethylpiperidin-4-yl)pyridazin-3-amine]	–	<5	<5
Oc1cc2ccccc2cc1-c1ccc(CC2CCNCC2)nn1 [Compound 82, 3-(6-(piperidin-4-ylmethyl)pyridazin-3-yl)naphthalen-2-ol]	–	<5	<5
